What is called IC50 is the point on the concentration scale where inhibition reaches its midpoint. Low values mean greater potency in that assay, high ones weaker potency in that assay.

Molecules are shown by their SMILES. Values joined by “and” are separate entries in the source; they are usually repeats but may differ in a detail not shown here. Identical values can stand only once.

For the assay, the target named is Mitogen-activated protein kinase kinase kinase kinase 1 (Homo sapiens, UniProt Q92918). Nature of the assay: HPK1-SLP76 TR-FRET ASSAY. (In TR-FRET formats the signal depends on donor and acceptor labels being close together.)
Mitogen-activated protein kinase kinase kinase kinase 1, sequence (Q92918 whole entry): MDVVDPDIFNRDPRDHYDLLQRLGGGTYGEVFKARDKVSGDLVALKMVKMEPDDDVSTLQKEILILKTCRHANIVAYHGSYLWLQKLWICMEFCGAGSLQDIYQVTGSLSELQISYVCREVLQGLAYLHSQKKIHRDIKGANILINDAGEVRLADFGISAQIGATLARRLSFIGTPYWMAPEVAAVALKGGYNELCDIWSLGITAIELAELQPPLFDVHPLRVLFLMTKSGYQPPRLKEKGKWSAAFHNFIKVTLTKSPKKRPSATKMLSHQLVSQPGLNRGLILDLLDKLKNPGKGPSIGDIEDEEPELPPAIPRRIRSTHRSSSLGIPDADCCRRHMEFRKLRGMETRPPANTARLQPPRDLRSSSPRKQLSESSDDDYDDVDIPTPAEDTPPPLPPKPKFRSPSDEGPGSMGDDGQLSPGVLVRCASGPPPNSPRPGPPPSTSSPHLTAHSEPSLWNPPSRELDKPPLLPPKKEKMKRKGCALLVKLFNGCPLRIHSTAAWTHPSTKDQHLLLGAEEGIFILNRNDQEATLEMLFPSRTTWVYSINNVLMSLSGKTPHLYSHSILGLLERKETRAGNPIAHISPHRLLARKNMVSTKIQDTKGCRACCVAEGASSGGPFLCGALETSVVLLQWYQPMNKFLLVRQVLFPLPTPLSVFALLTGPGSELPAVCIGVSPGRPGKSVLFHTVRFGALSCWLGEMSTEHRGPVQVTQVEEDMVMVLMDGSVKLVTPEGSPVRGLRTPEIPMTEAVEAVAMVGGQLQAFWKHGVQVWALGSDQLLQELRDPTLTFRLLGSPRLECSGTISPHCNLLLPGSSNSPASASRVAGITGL
In turn, `Cc1c(-c2cc3nc(Nc4ccc(CS(=O)(=O)C(C)C)cc4)ncc3c(N)c2F)cnc2c1NCCO2` [WO2022098806, Compound 2-157] registered an IC50 of 0.07 nM.

On to `Cc1c(-c2cc3nc(Nc4ccc5c(c4)CCN(C)C5)ncc3c(N)c2F)cnc2c1NCCO2` [WO2022098806, Compound 2-158], for which the half-maximal inhibitory concentration (IC50) stood at 0.03 nM.

In the case of `Cc1c(-c2c(F)c(N)c3cnc(Nc4ccc(N5CCOC5=O)cc4)nc3c2Cl)cnc2c1NCCO2` [WO2022098806, Compound 2-159], inhibition was half-maximal at 0.24 nM (IC50).

As to `Cc1c(-c2cc3nc(Nc4ccc5c(c4)CN(C)CC5)ncc3c(N)c2F)cnc2nc[nH]c12` [WO2022098806, Compound 2-162], the 50% inhibitory concentration (IC50) amounted to 0.13 nM.

For the compound `Cc1c(-c2cc3nc(Nc4ccc(CS(C)(=O)=O)cc4)ncc3c(N)c2F)cnc2c1NCC(C)(C)O2` [WO2022098806, Compound 2-165], the midpoint of inhibition, the IC50, lay at 0.1 nM.

Regarding `Cc1c(-c2cc3nc(Nc4ccc5c(c4)CN(C)CC5)ncc3c(N)c2F)cnc2c1NCC(C)(C)O2` [WO2022098806, Compound 2-166], it took 0.06 nM to reach half-maximal inhibition (IC50). This IC50 lies about 1.7-fold lower than the previous one.

Turning to `COc1cc(CS(=O)(=O)C(C)C)ccc1Nc1ncc2c(N)c(F)c(-c3cnc4c(c3C)NCC(C)(C)O4)cc2n1` [WO2022098806, Compound 2-168], the midpoint of inhibition, the IC50, lay at 0.1 nM.

`COc1cc2c(cc1Nc1ncc3c(N)c(F)c(-c4cnc5c(c4C)NCCO5)c(Cl)c3n1)CN(C)CC21CC1` [WO2022098806, Compound 2-169]: inhibition was half-maximal at 0.06 nM (IC50). Compared with the last compound, the IC50 is about 1.7-fold lower.

In the case of `Cc1c(-c2cc3nc(Nc4ccc([S+](C)[O-])cc4)ncc3c(N)c2F)cnc2c1NCCO2` (stereo not drawn) [WO2022098806, Compound 2-170], the IC50 was 0.04 nM.

The compound `Cc1c(-c2cc3nc(Nc4cc5c(cc4F)CCN(C(C)C)C5)ncc3c(N)c2F)cnc2c1NCCO2` [WO2022098806, Compound 2-171] showed an IC50 of 0.05 nM.

`Cc1ccc(F)cc1-c1cc2nc(Nc3ccc(CS(C)(=O)=O)cc3)ncc2c(N)c1F` [WO2022098806, Compound 2-172]: half-maximal inhibition (IC50) was put at 25 nM.

Regarding `CCc1ccc(Nc2ncc3c(N)c(F)c(-c4cnc5c(c4C)NCCO5)cc3n2)cn1` [WO2022098806, Compound 2-173], the 50% inhibitory concentration (IC50) is 0.13 nM.

`Cc1ccc(F)cc1-c1cc2nc(Nc3ccc4c(c3)CN(C)CC4)ncc2c(N)c1F` [WO2022098806, Compound 2-174]: the 50% inhibitory concentration (IC50) was 11 nM.

Regarding `COc1cc(C2CC2)ccc1Nc1ncc2c(N)c(F)c(-c3cnc4c(c3C)NCCO4)cc2n1` [WO2022098806, Compound 2-176], inhibition was half-maximal at 17 nM (IC50).

For the compound `Cc1c(-c2cc3nc(Nc4ccc(CC(C)(C)O)cc4)ncc3c(N)c2F)cnc2c1NCCO2` [WO2022098806, Compound 2-178], the IC50 was found to be 0.09 nM.

As for `Cc1c(-c2c(F)c(N)c3cnc(Nc4ccc5c(c4)CN(C)CC5)nc3c2Cl)cnc2c1NCCO2` [WO2022098806, Compound 2-180], the IC50 is 0.06 nM and 0.02 nM.

In turn, `Cc1c(-c2cc3nc(Nc4cnc5c(c4)CN(C)CC5)ncc3c(N)c2F)cnc2c1NCCO2` [WO2022098806, Compound 2-183] returned a 50% inhibitory concentration (IC50) of 0.04 nM.

On to `Cc1c(-c2c(F)c(N)c3cnc(Nc4cc5c(cc4F)CCN(C)C5)nc3c2Cl)cnc2c1NCCO2` [WO2022098806, Compound 2-184], for which the half-inhibitory concentration (IC50) came out at 0.09 nM.

`CNC(=O)C(F)(F)c1ccc(Nc2ncc3c(N)c(F)c(-c4cnc5c(c4C)NCCO5)cc3n2)cc1` [WO2022098806, Compound 2-186] came in with an IC50 of 0.14 nM. Compared with the last compound, the IC50 is about 1.6-fold higher.

The compound `CNC(=O)C(C)(C)c1ccc(Nc2ncc3c(N)c(F)c(-c4cnc5c(c4C)NCCO5)cc3n2)cc1` [WO2022098806, Compound 2-187] yielded a concentration for half-maximal inhibition (IC50) of 0.08 nM.

Take `COc1cc2c(cc1Nc1ncc3ccc(N4CC5(CCOC5)OC4=O)cc3n1)CN(C)CC2` (stereo not drawn) [WO2022098806, Compound 3-3]: the concentration for half-maximal inhibition (IC50) was 391 nM.

As to `COc1cc2c(cc1Nc1ncc3ccc(N4CC(CO)OC4=O)cc3n1)CN(C)CC2` (stereo not drawn) [WO2022098806, Compound 3-4], the IC50 amounted to 9.36 nM.

As to `COc1cc2c(cc1Nc1ncc3ccc(N4CC5(CCCNCC5)OC4=O)cc3n1)CN(C)CC2` (stereo not drawn) [WO2022098806, Compound 3-5], the concentration for half-maximal inhibition (IC50) was 205 nM and 93 nM.

In turn, `COc1cc2c(cc1Nc1ncc3ccc(N4CC(C)(CO)OC4=O)cc3n1)CN(C)CC2` (stereo not drawn) [WO2022098806, Compound 3-7] yielded a concentration for half-maximal inhibition (IC50) of 45 nM.

The compound `COc1cc2c(cc1Nc1ncc3ccc(N4CC(CN)OC4=O)cc3n1)CN(C)CC2` (stereo not drawn) [WO2022098806, Compound 3-11] displayed an IC50 of 82 nM.

Consider `CNCC1CN(c2ccc3cnc(Nc4cc5c(cc4OC)CCN(C)C5)nc3c2)C(=O)O1` (stereo not drawn) [WO2022098806, Compound 3-12], for which half-maximal inhibition (IC50) required 94 nM.

`CC[C@@H]1COC(=O)N1c1ccc2cnc(Nc3cc4c(cc3OC)CCN(C)C4)nc2c1` [WO2022098806, Compound 3-13]: the IC50 came out at 1.05 nM.

The compound `CC[C@H]1COC(=O)N1c1ccc2cnc(Nc3cc4c(cc3OC)CCN(C)C4)nc2c1` [WO2022098806, Compound 3-14] returned an IC50 of 25 nM.

As for `CC[C@@H]1COC(=O)N1c1cc(N)c2cnc(Nc3cc4c(cc3OC)CCN(C)C4)nc2c1` [WO2022098806, Compound 3-15], the midpoint of inhibition, the IC50, lay at 3.24 nM. Compared with the last compound, the IC50 is about 7.7-fold lower.

For the compound `CC[C@H]1COC(=O)N1c1cc(N)c2cnc(Nc3cc4c(cc3OC)CCN(C)C4)nc2c1` [WO2022098806, Compound 3-16], the half-inhibitory concentration (IC50) amounted to 0.17 nM. Against the preceding compound, the IC50 is about 19-fold lower.

With `COc1cc2c(cc1Nc1ncc3c(N)cc(N4C(=O)OC[C@@H]4C)cc3n1)CN(C)CC2` [WO2022098806, Compound 3-17], it took 0.08 nM to reach half-maximal inhibition (IC50). Against the preceding compound, the IC50 is about 2.1-fold lower.

As for `COc1cc2c(cc1Nc1ncc3ccc(N4CCCC(CN5CCCC5=O)C4)cc3n1)CN(C)CC2` (stereo not drawn) [WO2022098806, Compound 3-20], the 50% inhibitory concentration (IC50) was 771 nM. Against the preceding compound, the IC50 is about 9600-fold higher.

`COc1cc2c(cc1Nc1ncc3ccc(Nc4ccc5c(c4)C(=O)NCC5)cc3n1)CN(C)CC2` [WO2022098806, Compound 3-21] had a half-maximal inhibitory concentration (IC50) of 30 nM.

`COc1cc2c(cc1Nc1ncc3ccc(NCC4CNC(=O)O4)cc3n1)CN(C)CC2` (stereo not drawn) [WO2022098806, Compound 3-26]: the half-inhibitory concentration (IC50) stood at 149 nM. This IC50 is about 5-fold higher than that of the compound before.

`COc1cc2c(cc1Nc1ncc3ccc(Nc4cccc(C#N)n4)cc3n1)CN(C)CC2` [WO2022098806, Compound 3-27] displayed a half-inhibitory concentration (IC50) of 23 nM.

For `COc1cc2c(cc1Nc1ncc3ccc(Nc4cccc(CO)n4)cc3n1)CN(C)CC2` [WO2022098806, Compound 3-29], the half-inhibitory concentration (IC50) was 21 nM.

`COc1cc2c(cc1Nc1ncc3ccc(N(C)CC4CNC(=O)O4)cc3n1)CN(C)CC2` (stereo not drawn) [WO2022098806, Compound 3-30]: the IC50 was found to be 148 nM.

For `COc1cc2c(cc1Nc1ncc3ccc(Nc4cccc(CO)c4)cc3n1)CN(C)CC2` [WO2022098806, Compound 3-31], the IC50 was determined as 29 nM.

`COc1cc2c(cc1Nc1ncc3ccc(Nc4cccc(S(C)(=O)=O)c4)cc3n1)CN(C)CC2` [WO2022098806, Compound 3-33] had an IC50 of 18 nM.

The compound `COc1cc2c(cc1Nc1ncc3ccc(Nc4nc(S(C)(=O)=O)ccc4F)cc3n1)CN(C)CC2` [WO2022098806, Compound 3-36] had an IC50 of 4.18 nM.

Turning to `COc1cc2c(cc1Nc1ncc3ccc(NCC4CCS(=O)(=O)C4)cc3n1)CN(C)CC2` (stereo not drawn) [WO2022098806, Compound 3-37], the 50% inhibitory concentration (IC50) was 73 nM. Compared with the last compound, the IC50 is about 17-fold higher.

On to `COc1cc2c(cc1Nc1ncc3ccc(NC4CCCC(O)C4)cc3n1)CN(C)CC2` (stereo not drawn) [WO2022098806, Compound 3-39], for which 228 nM corresponded to half-maximal inhibition (IC50).

`COc1cc2c(cc1Nc1ncc3ccc(NCC4CCC(=O)N4)cc3n1)CN(C)CC2` (stereo not drawn) [WO2022098806, Compound 3-45] displayed a concentration for half-maximal inhibition (IC50) of 292 nM.

Source of the values: BindingDB's records for patent WO2022098806 (MERCK SHARP & DOHME LLC, 2022).
